ChEMBL document CHEMBL5537165, “Hepatitis C: The Story of a Long Journey through First, Second, and Third Generation NS3/4A Peptidomimetic Inhibitors. What Did We Learn?” (J Med Chem, 2024)
*1 amine or outer side, *2 acyl side, *3 side chain or, on linkers, in order; H or OH if unused. Where a SMILES comes first, the peptide text is derived from it. Side-chain parts run from the residue outwards. [ ]: non-standard residue; d: D form. The star is where a group is joined. Tetrahydroisoquinolin(2-yl) = c1ccc2c(c1)CCN(*)C2; Pyrazinecarbonyl = O=C(c1cnccn1)*; Hyp = O=C(O)[C@@H]1C[C@@H](O)CN1; Abu = CC[C@H](N)C(=O)O; CO = O=C([*:1])[*:2]; Bn = c1ccc(C*)cc1

Tests used:
[1] = target: Replicase polyprotein 1ab (Severe acute respiratory syndrome coronavirus 2, UniProt P0DTD1); assay: Inhibition of SARS-CoV-2 3CL protease by FRET assay
[2] = target: T1, Non-structural protein 4b (Hepacivirus hominis, UniProt F5B4I0); assay: Inhibition of Hepatitis C virus genotype 3a NS4B
T1 sequence (F5B4I0 whole entry): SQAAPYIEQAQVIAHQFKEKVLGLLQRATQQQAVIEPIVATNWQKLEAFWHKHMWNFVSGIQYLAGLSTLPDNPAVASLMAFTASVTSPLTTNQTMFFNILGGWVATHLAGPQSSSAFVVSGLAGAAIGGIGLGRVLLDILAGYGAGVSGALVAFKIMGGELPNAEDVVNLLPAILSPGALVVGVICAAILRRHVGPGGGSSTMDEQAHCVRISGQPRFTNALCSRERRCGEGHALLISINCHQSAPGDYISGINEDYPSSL

[3] = target: T1, Non-structural protein 4b; assay: Inhibition of Hepatitis C virus genotype 1b NS4B
SARS-CoV-2 = assay: Antiviral activity against SARS-CoV-2 infected in human Huh-7 cells assessed as reduction in viral growth; type: functional, organism-based; settings: Severe acute respiratory syndrome coronavirus 2, Huh-7
[4] = target: T1, Non-structural protein 4b; assay: Binding affinity to full length Hepatitis C virus genotype 1b NS4B expressed in Escherichia coli assessed as inhibition constant
[5] = Inhibition of Hepatitis C virus NS3 protease; design: species or system Hepacivirus hominis
[6] = target: T1, Non-structural protein 4b; assay: Binding affinity to Hepatitis C virus genotype 1b NS4B assessed as inhibition constant
[7] = target: T1, Non-structural protein 4b; assay: Inhibition of full length Hepatitis C virus genotype 1b NS4B expressed in Escherichia coli
[8] = Half life in Beagle dog at 5 mg/kg, po by LC-MS/MS analysis; type: ADME, organism-based, Canis lupus familiaris; settings: in vivo
[9] = Oral bioavailability in Beagle dog at 2 mg/kg; type: ADME, organism-based, Canis lupus familiaris; settings: in vivo
[10] = AUC in Sprague-Dawley rat at 2 mg/kg, po; type: ADME, organism-based; settings: in vivo
[11] = Half life in Sprague-Dawley rat at 5 mg/kg, po by LC-MS/MS analysis; type: ADME, organism-based; settings: in vivo
[12] = Cmax in Sprague-Dawley rat at 3 mg/kg, po and measured upto 24 hrs by LC-MS/MS analysis; type: ADME, organism-based; settings: in vivo
[13] = Volume of distribution at steady state in Beagle dog at 0.5 mg/kg, iv and measured upto 24 hrs by LC-MS/MS analysis; type: ADME, organism-based, Canis lupus familiaris; settings: in vivo, read-out: Vdss
[14] = Oral bioavailability in Sprague-Dawley rat; type: ADME, organism-based; settings: in vivo
[15] = target: T1, Non-structural protein 4b; assay: Binding affinity to Hepatitis C virus genotype 3a NS4B assessed as inhibition constant
[16] = Cmax in Beagle dog at 3 mg/kg, po and measured upto 24 hrs by LC-MS/MS analysis; type: ADME, organism-based, Canis lupus familiaris; settings: in vivo
[17] = AUC (0 to infinity) in liver to plasma of Sprague-Dawley rat at 3 mg/kg,po; type: ADME, organism-based; settings: in vivo
[18] = Clearance in Beagle dog plasma at 0.5 mg/kg, iv and measured upto 24 hrs by LC-MS/MS analysis; type: ADME, organism-based, Canis lupus familiaris
[19] = target: T1, Non-structural protein 4b; assay: Binding affinity to Hepatitis C virus genotype 1a NS4B assessed as inhibition constant
[20] = Clearance in Sprague-Dawley rat at 2 mg/kg, iv by LC-MS/MS analysis; type: ADME, organism-based; settings: in vivo
[21] = Volume of distribution at steady state in Sprague-Dawley rat at 1 mg/kg, iv; type: ADME, organism-based; settings: in vivo, read-out: Vdss
[22] = AUC in Sprague-Dawley rat plasma […] at 10 mg/kg, po administered via gavage by LC-MS/MS analysis; type: ADME, organism-based; settings: in vivo
[23] = target: T1, Non-structural protein 4b; assay: Binding affinity to Hepatitis C virus genotype 1 NS4B assessed as inhibition constant
[24] = target: T1, Non-structural protein 4b; assay: Inhibition of Hepatitis C virus genotype 1a NS4B

## C=C[C@@H]1C[C@]1(NC(=O)[C@@H]1C[C@@H](Oc2cc(-c3csc(NC(C)C)n3)nc3cc(OC)ccc23)CN1C(=O)[C@@H](NC(=O)OC1CCCC1)C(C)(C)C)P(=O)(O)O
[1]
  IC50: 0.9 nM

## COc1ccc2nc(C(F)(F)F)c3c(c2c1)CC[C@]1(C[C@H]2C(=O)N[C@]4(C(=O)NS(=O)(=O)C5(C)CC5)C[C@H]4/C=C/CCCCCC(NC(=O)OC(C)(C)C)C(=O)N2C1)O3 (stereo partly specified)
[2]
  IC50: 0.47 nM

## C=C[C@@H]1C[C@]1(NC(=O)[C@@H]1C[C@]2(CCc3c(c(C)nc4ccccc34)O2)CN1C(=O)[C@@H](NC(=O)OC(C)(C)C)C(C)(C)C)C(=O)NS(=O)(=O)C1(C)CC1
[2]
  IC50: 5.7 nM
[3]
  IC50: 0.033 nM

## COc1ccc2c(O[C@@H]3C[C@H]4C(=O)N[C@]5(P(=O)(O)Cc6c(F)cccc6F)C[C@H]5CCCCCCC[C@H](NC(=O)OC5CCCC5)C(=O)N4C3)cc(-c3csc(NC(C)C)n3)nc2c1Cl [GS-9256]
SARS-CoV-2
  EC50: 20 nM
[4]
  Ki: 0.089 nM

## CC[C@H](C)[C@H](NC(=O)[C@@H](CC(=O)O)NC(=O)[C@H](CC(=O)O)NC(C)=O)C(=O)N[C@H](C(=O)N1CCC[C@H]1C(=O)N[C@@H](CS)C(=O)O)C(C)C (Ac-D[dD]IVPC-OH)
[5]
  IC50: 4000 nM

## CC[C@@H]1C[C@]1(NC(=O)[C@@H]1C[C@@H]2CN1C(=O)[C@H](C(C)(C)C)NC(=O)OCC(C)(C)CCCCc1cccc3c1CN(C3)C(=O)O2)C(=O)NS(=O)(=O)C1CC1
[3]
  IC50: 3 nM
[6]
  Ki: 0.05 nM

## C=C[C@@H]1C[C@]1(NC(=O)[C@@H]1C[C@@H]2CN1C(=O)[C@H](C(C)(C)C)NC(=O)OCCC/C=C/c1ccc3ccnc(c3c1)O2)C(=O)NS(=O)(=O)C1CC1
[7]
  IC50: 210 nM

## C=C[C@@H]1C[C@]1(NC(=O)[C@@H]1C[C@@H](Oc2cc(-c3ccccc3)nc3cc(OC)ccc23)CN1C(=O)[C@@H](NC(=O)OC1CCCC1)C(C)(C)C)C(=O)O
[7]
  IC50: 14 nM

## Cc1cnc(C(=O)N[C@H]2CCCCC/C=C\[C@@H]3C[C@@]3(C(=O)NS(=O)(=O)C3CC3)NC(=O)[C@@H]3C[C@@H](Oc4nc5ccccc5c5ccccc45)CN3C2=O)cn1
[8]
  half-life: 1.2 h
[9]
  bioavailability: 41%
[10]
  AUC: 19 µM·h
[11]
  half-life: 0.4 h

## COc1ccc2c(O[C@@H]3C[C@H]4C(=O)N[C@]5(C(=O)O)C[C@H]5/C=C\CCCCC[C@H](NC(=O)OC5CCCC5)C(=O)N4C3)cc(-c3csc(NC(C)C)n3)nc2c1
[5]
  IC50: 3000 nM

## COc1ccc2nc3c(nc2c1)O[C@@H]1CC2C(=O)N[C@]4(C(=O)NS(=O)(=O)C5(C)CC5)C[C@@H]4/C=C/CCCCC[C@H](NC(=O)O[C@@H]4CCC[C@H]4CCCCC3)C(=O)N2C1 (stereo partly specified)
[12]
  Cmax: 0.07 µM
[8]
  half-life: 2.3 h
[13]
  Vd: 0.5 L/kg
[14]
  bioavailability: 8%
[15]
  Ki: 0.26 nM
[16]
  Cmax: 0.35 µM
[9]
  bioavailability: 12%
[17]
  AUC: 2470 µM·h
[18]
  clearance: 0.264 L/h/kg
[11]
  half-life: 3.8 h
[19]
  Ki: 0.005 nM
[20]
  clearance: 1.98 L/h/kg
[21]
  Vd: 4 L/kg
[22]
  AUC: 20 µM·h

## COc1ccc2nc3c4c(c2c1)CC[C@]1(C[C@H]2C(=O)N[C@]5(C(=O)NS(=O)(=O)C6(C)CC6)C[C@H]5/C=C/CCCCC[C@H](NC(=O)O[C@@H]5CCC[C@H]5CCCCC3)C(=O)N2C1)O4
[1]
  IC50: < 0.01 nM

## CCC[C@H](NC(=O)[C@@H]1C[C@@H](OC(=O)N2CCc3ccccc3C2)CN1C(=O)[C@@H](NC(=O)[C@@H](NC(=O)c1cnccn1)C(C)C)C(C)C)C(=O)C(=O)NC1CC1
[23]
  Ki: 2300 nM

## C=C[C@@H]1C[C@]1(NC(=O)[C@@H]1C[C@@H](Oc2ncc(OC)c3ccccc23)CN1C(=O)[C@@H](NC(=O)OC(C)(C)C)C(C)(C)C)C(=O)NS(=O)(=O)C1CC1
SARS-CoV-2
  EC50: 19 nM
[24]
  IC50: 7 nM

## Cc1nc2ccccc2c2c1O[C@]1(CC2)C[C@H]2C(=O)N[C@]3(C(=O)NS(=O)(=O)C4(C)CC4)C[C@H]3/C=C/CCCCC[C@H](NC(=O)OC(C)(C)C)C(=O)N2C1
[2]
  IC50: 0.7 nM
[3]
  IC50: 0.013 nM

## C=C[C@@H]1C[C@]1(NC(=O)[C@@H]1C[C@@H](Oc2nccc3ccccc23)CN1C(=O)[C@@H](NC(=O)OC(C)(C)C)C(C)(C)C)C(=O)NS(=O)(=O)C1CC1
SARS-CoV-2
  EC50: 60 nM
[24]
  IC50: 7 nM

## C=C[C@@H]1C[C@]1(NC(=O)[C@@H]1C[C@]23CCc4c(c(nc5ccc(OC)cc45)CCCCC[C@@H]4C[C@H]4OC(=O)N[C@@H](C4(C)CCCCC4)C(=O)N1C2)O3)C(=O)NS(=O)(=O)C1(C)CC1
[2]
  IC50: 4.5 nM

## C=C[C@@H]1C[C@]1(NC(=O)[C@@H]1C[C@@H]2CN1C(=O)[C@H](C(C)(C)C)NC(=O)O[C@@H]1C[C@H]1CCCCCc1nc3ccc(OC)cc3cc1O2)C(=O)NS(=O)(=O)C1CC1
[7]
  IC50: 13 nM
[15]
  Ki: 0.31 nM
[4]
  Ki: 0.02 nM

## C=C[C@@H]1C[C@]1(NC(=O)[C@@H]1C[C@@H](Oc2cc3ccccc3cn2)CN1C(=O)[C@@H](NC(=O)OCC(C)C)C(C)(C)C)C(=O)NS(=O)(=O)C1(C)CC1
[2]
  IC50: 430 nM
[3]
  IC50: 2.7 nM

## CC[C@@H](C=O)NC(=O)[C@@H]1C[C@@H](OC(=O)N2CCc3ccccc3C2)CN1C(=O)[C@@H](NC(=O)[C@@H](NC(=O)c1cnccn1)C(C)C)C(C)C (Pyrazinecarbonyl-VV[Hyp]([CO-Tetrahydroisoquinolin(2-yl)])[Abu]-aldehyde)
[23]
  Ki: 890 nM

## CC[C@@H](C=O)NC(=O)[C@@H]1C[C@@H](OCc2ccccc2)CN1C(=O)[C@@H](NC(=O)[C@@H](NC(=O)c1cnccn1)C(C)C)C(C)C (Pyrazinecarbonyl-VV[Hyp](Bn)[Abu]-aldehyde)
[23]
  Ki: 12000 nM

## C=C[C@@H]1C[C@]1(NC(=O)[C@@H]1C[C@@H](Oc2cc(-c3ccccc3)nc3cc(OC)ccc23)CN1C(=O)[C@@H](NC(=O)OC(C)(C)C)C(C)(C)C)C(=O)NS(=O)(=O)C1CC1
SARS-CoV-2
  EC50: 4 nM
[24]
  IC50: 1 nM

## CC[C@@H](C=O)NC(=O)[C@@H]1C[C@@H](OCc2ccccc2)CN1C(=O)[C@@H](NC(=O)[C@@H](NC(=O)[C@H](CC(=O)O)NC(=O)[C@H](CCC(=O)O)NC(C)=O)C(C)C)C(C)C (Ac-EDVV[Hyp](Bn)[Abu]-aldehyde)
[23]
  Ki: 890 nM

## CC(C)(C)OC(=O)N[C@H]1CCCCC/C=C\[C@@H]2C[C@@]2(C(=O)NS(=O)(=O)C2CC2)NC(=O)[C@@H]2C[C@@H](OC(=O)N3Cc4cccc(F)c4C3)CN2C1=O [DANOPREVIR]
[19]
  Ki: 1 nM

## COc1ccc2c(O[C@@H]3C[C@H]4C(=O)N[C@]5(C(=O)O)C[C@H]5/C=C/CCCCC[C@H](NC(=O)OC(C)(C)C)C(=O)N4C3)cc(-c3ccccc3)nc2c1
[5]
  IC50: 11 nM

## C=C[C@@H]1C[C@]1(NC(=O)[C@@H]1C[C@@H](Oc2cc(-c3ccccc3)nc3cc(OC)ccc23)CN1C(=O)[C@H](CCCCC)NC(=O)OC(C)(C)C)C(=O)O
[5]
  IC50: 400 nM

## CCC[C@H](NC(=O)[C@@H]1C[C@@H](OCc2cccc3ccccc23)CN1C(=O)[C@@H](NC(=O)[C@@H](NC(=O)[C@@H](CC(=O)O)NC(=O)[C@H](CC(=O)O)NC(C)=O)C1CCCCC1)C(C)C)C(=O)O
[5]
  IC50: 27 nM

## C=C[C@H]1C[C@]1(NC(=O)[C@@H]1C[C@@H]2CN1C(=O)[C@H](C(C)(C)C)NC(=O)OCCC/C=C/c1cccc3c1CN(C3)C(=O)O2)C(=O)NS(=O)(=O)C1CC1
[7]
  IC50: 7 nM
[4]
  Ki: 0.05 nM

## COc1ccc2c(O[C@@H]3C[C@H]4C(=O)N[C@]5(P(=O)(O)Cc6ccccc6)C[C@H]5CCCCCCC[C@H](NC(=O)OC5CCCC5)C(=O)N4C3)cc(-c3csc(NC(C)C)n3)nc2c1
[1]
  IC50: 6 nM
